# Data taken from US20230159527A1, “COMPOUNDS AS BCL-2 INHIBITORS” (Fochon Pharmaceuticals, Ltd., priority 2020, published 2023).
# Tested on: Toledo cells
# Assay: Cell proliferation assay, Toledo cells (MTS, 72 h)
# Assay type: cell-based
# Settings: Homo sapiens, Toledo cells, MTS, read-out: Toledo IC50
# Summary of the method: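 Toledo cells (30000/well, RPMI-1640 with 10% FBS) were preincubated for 4 h. They were then exposed to nine compound concentrations from 10000 to 1.5 nM for 72 h at 37 °C, 5% CO2. MTS was added for 2 h and absorbance read at 490 nm to give IC50.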
row,Compound,IC50 [nM]
1,"CO[C@H]1CC[C@@H]([C@@H]2COc3cc(S(=O)(=O)NC(=O)c4ccc(N5CCC6(CC5)CC(N5CCC[C@H]5c5ccccc5C(C)C)C6)cc4Oc4cnc5[nH]cc(F)c5c4)cc([N+](=O)[O-])c3N2)CC1 (single isomer, unassigned) [Example D-46, 2-((3-fluoro-1H-pyrrolo[2,3-b]pyridin-5-yl)oxy)-4-(2-((R or S)-2-(2-isopropylphenyl)pyrrolidin-1-yl)-7-azaspiro[3.5]nonan-7-yl)-N-(((R)-3-((1s,4S)-4-methoxycyclohexyl)-5-nitro-3,4-dihydro-2H-benzo[b][1,4]oxazin-7-yl)sulfonyl)benzamide]",1
2,"CC(C)c1ccccc1[C@@H]1CCCN1C1CC2(CCN(c3ccc(C(=O)NS(=O)(=O)c4cc5c(c([N+](=O)[O-])c4)N[C@@H]([C@H]4CC[C@](C)(O)CC4)CO5)c(Oc4cc5cc[nH]c5nc4OC(F)F)c3)CC2)C1 (single isomer, unassigned) [Example D-11, 2-((6-(difluoromethoxy)-1H-pyrrolo [2,3-b]pyridin-5-yl)oxy)-N-(((S)-3-((1r,4S)-4-hydroxy-4-methylcyclohexyl)-5-nitro-3,4-dihydro-2H-benzo[b][1,4]oxazin-7-yl)sulfonyl)-4-(2-((R or S)-2-(2-isopropylphenyl)pyrrolidin-1-yl)-7-azaspiro[3.5]nonan-7-yl)benzamide]",1
3,"CC(C)c1ccccc1[C@@H]1CCC[C@@H]1N1CC2(CCN(c3ccc(C(=O)NS(=O)(=O)c4ccc(NC[C@H]5CC[C@](C)(O)CC5)c([N+](=O)[O-])c4)c(Oc4cc5cc[nH]c5nc4Cl)c3)CC2)C1 (single isomer, unassigned) [Example D-232, 2-((6-chloro-1H-pyrrolo[2,3-b]pyridin-5-yl)oxy)-N-((4-((1r,4r)-4-hydroxy-4-methylcyclohexyl)methyl)amino)-3-nitrophenyl) sulfonyl)-4-(2-((1S,2S or 1R,2R)-2-(2-isopropylphenyl) cyclopentyl)-2,7-diazaspiro[3.5] nonan-7-yl)benzamide]",1
4,"COc1nc2[nH]ccc2cc1Oc1cc(N2CCC3(CC2)CN([C@H]2CCC[C@H]2c2ccccc2C(C)C)C3)ccc1C(=O)NS(=O)(=O)c1ccc(NC[C@H]2CC[C@](C)(O)CC2)c([N+](=O)[O-])c1 (single isomer, unassigned) [Example D-91, N-((4-((((1r,4r)-4-hydroxy-4-methylcyclohexyl)methyl)amino)-3-nitrophenyl)sulfonyl)-4-(2-((1S,2S or 1R,2R)-2-(2-isopropylphenyl)cyclopentyl)-2,7-diazaspiro[3.5]nonan-7-yl)-2-((6-methoxy-177-pyrrolo [2,3-b]pyridin-5-yl)oxy)benzamide]",1
5,"CC(C)c1ccccc1[C@@H]1CCCN1C1CC2(CCN(c3ccc(C(=O)NS(=O)(=O)c4cc5c(c([N+](=O)[O-])c4)N[C@@H]([C@H]4CC[C@](C)(O)CC4)CO5)c(Oc4cc5cc[nH]c5nc4O[C@H]4CCNC4)c3)CC2)C1 (single isomer, unassigned) [Example D-225, N-(((S)-3-((1r,4S)-4-hydroxy-4-methylcyclohexyl)-5-nitro-3,4-dihydro-2H-benzo[b][1,4]oxazin-7-yl)sulfonyl)-4-(2-((R or S)-2-(2-isopropylphenyl)pyrrolidin-1-yl)-7-azaspiro[3.5]nonan-7-yl)-2-((6-(((S)-pyrrolidin-3-yl)oxy)-1H-pyrrolo[2,3-b]pyridin-5-yl)oxy)benzamide]",1
6,"COCCOc1nc2[nH]ccc2cc1Oc1cc(N2CCC3(CC2)CN([C@H]2CCC[C@H]2c2ccccc2C(C)C)C3)ccc1C(=O)NS(=O)(=O)c1ccc(NC[C@H]2CC[C@](C)(O)CC2)c([N+](=O)[O-])c1 (racemic) [Example D-76, N-((4-((((1r,4r)-4-hydroxy-4-methylcyclohexyl)methyl)amino)-3-nitrophenyl)sulfonyl)-4-(2-((1S,2S and 1R,2R)-2-(2-isopropylphenyl)cyclopentyl)-2,7-diazaspiro[3.5]nonan-7-yl)-2-((6-(2-methoxyethoxy)-1H-pyrrolo[2,3-b]pyridin-5-yl)oxy)benzamide]",1
7,"CC(C)c1ccccc1[C@@H]1CC[C@@H](CO)N1C1CC2(CCN(c3ccc(C(=O)NS(=O)(=O)c4cc5c(c([N+](=O)[O-])c4)N[C@@H]([C@H]4CC[C@](C)(O)CC4)CO5)c(Oc4cnc5[nH]cc(F)c5c4)c3)CC2)C1 [Example D-253, 2-((3-fluoro-1H-pyrrolo[2,3-b]pyridin-5-yl)oxy)-N-(((S)-3-((1r,4S)-4-hydroxy-4-methylcyclohexyl)-5-nitro-3,4-dihydro-2H-benzo[b] [1,4]oxazin-7-yl)sulfonyl)-4-(2-((2S,5S)-2-(hydroxymethyl)-5-(2-isopropylphenyl)pyrrolidin-1-yl)-7-azaspiro[3.5]nonan-7-yl)benzamide]",1
8,"CC(C)c1ccccc1C1(O)CCCC1N1CC2(CCN(c3ccc(C(=O)NS(=O)(=O)c4cc5c(c([N+](=O)[O-])c4)N[C@@H]([C@H]4CC[C@](C)(O)CC4)CO5)c(Oc4cnc5[nH]cc(F)c5c4)c3)CC2)C1 (stereo partly drawn) [Example D-247, 2-((3-fluoro-1H-pyrrolo[2,3-b]pyridin-5-yl)oxy)-4-(2-(2-hydroxy-2-(2-isopropylphenyl)cyclopentyl)-2,7-diazaspiro[3.5]nonan-7-yl)-N-(((S)-3-((1r,4S)-4-hydroxy-4-methylcyclohexyl)-5-nitro-3,4-dihydro-2H-benzo[b][1,4]oxazin-7-yl)sulfonyl)benzamide]",1
9,"CC(C)c1ccccc1C1=CCCC1N1CC2(CCN(c3ccc(C(=O)NS(=O)(=O)c4cc5c(c([N+](=O)[O-])c4)N[C@@H]([C@H]4CC[C@](C)(O)CC4)CO5)c(Oc4cnc5[nH]cc(F)c5c4)c3)CC2)C1 (stereo partly drawn) [Example D-77, 2-((3-fluoro-1H-pyrrolo[2,3-b]pyridin-5-yl)oxy)-N-(((S)-3-((1r,4S)-4-hydroxy-4-methylcyclohexyl)-5-nitro-3,4-dihydro-2H-benzo[b] [1,4]oxazin-7-yl)sulfonyl)-4-(2-(2-(2-isopropylphenyl)cyclopent-2-en-1-yl)-2,7-diazaspiro[3.5]nonan-7-yl)benzamide]",1
10,"Cc1nc2[nH]ccc2cc1Oc1cc(N2CCC3(CC2)CC(N2CCC[C@H]2c2ccccc2C(C)C)C3)ccc1C(=O)NS(=O)(=O)c1cc2c(c([N+](=O)[O-])c1)N[C@@H]([C@H]1CC[C@](C)(O)CC1)CO2 (single isomer, unassigned) [Example D-39, N-(((S)-3-((1r,4S)-4-hydroxy-4-methylcyclohexyl)-5-nitro-3,4-dihydro-2H-benzo[b][1,4]oxazin-7-yl)sulfonyl)-4-(2-((R or S)-2-(2-isopropylphenyl)pyrrolidin-1-yl)-7-azaspiro[3.5]nonan-7-yl)-2-((6-methyl-1H-pyrrolo[2,3-b]pyridin-5-yl)oxy)benzamide]",1
11,"CC(C)c1ccccc1[C@@H]1CCC(=O)N1C1CC2(CCN(c3ccc(C(=O)NS(=O)(=O)c4cc5c(c([N+](=O)[O-])c4)N[C@@H]([C@H]4CC[C@](C)(O)CC4)CO5)c(Oc4cnc5[nH]cc(F)c5c4)c3)CC2)C1 [Example D-257, 2-((3-fluoro-1H-pyrrolo[2,3-b]pyridin-5-yl)oxy)-N-(((S)-3-((1r,4S)-4-hydroxy-4-methylcyclohexyl)-5-nitro-3,4-dihydro-2H-benzo[b] [1,4]oxazin-7-yl)sulfonyl)-4-(2-((S)-2-(2-isopropylphenyl)-5-oxopyrrolidin-1-yl)-7-azaspiro[3.5]nonan-7-yl)benzamide]",1
12,"CC(C)c1ccccc1[C@@H]1CCC[C@@H]1N1CC2(CCN(c3ccc(C(=O)NS(=O)(=O)c4cc5c(c([N+](=O)[O-])c4)N[C@@H]([C@H]4CC[C@](C)(O)CC4)CO5)c(Oc4cc5cc[nH]c5nc4OC4COC4)c3)CC2)C1 (single isomer, unassigned) [Example D-108, N-(((S)-3-((1r,4S)-4-hydroxy-4-methylcyclohexyl)-5-nitro-3,4-dihydro-2H-benzo[b][1,4]oxazin-7-yl)sulfonyl)-4-(2-((1S,2S or 1R,2R)-2-(2-isopropylphenyl)cyclopentyl)-2,7-diazaspiro[3.5]nonan-7-yl)-2-((6-(oxetan-3-yloxy)-1H-pyrrolo[2,3-b]pyridin-5-yl)oxy) benzamide]",1
13,"CC(C)c1ccccc1[C@@H]1CCC[C@@H]1N1CC2(CCN(c3ccc(C(=O)NS(=O)(=O)c4cc5c(c([N+](=O)[O-])c4)N[C@@H]([C@H]4CC[C@](C)(O)CC4)CO5)c(Oc4cc5cc[nH]c5nc4OC[C@@H]4COCCO4)c3)CC2)C1 (single isomer, unassigned) [Example D-258, 2-((6-(((S)-1,4-dioxan-2-yl)methoxy)-1H-pyrrolo[2,3-b]pyridin-5-yl)oxy)-N-((S)-3-((1r,4S)-4-hydroxy-4-methylcyclohexyl)-5-nitro-3,4-dihydro-2H-benzo[b][1,4]oxazin-7-yl)sulfonyl)-4-(2-((1S,2S or 1R,2R)-2-(2-isopropylphenyl)cyclopentyl)-2,7-diazaspiro[3.5] nonan-7-yl)benzamide]",1
14,"CC(C)c1ccccc1[C@@H]1CCCN1C1CC2(CCN(c3ccc(C(=O)NS(=O)(=O)c4cc5c(c([N+](=O)[O-])c4)N[C@@H](C4CCC(O)CC4)CO5)c(Oc4cnc5[nH]cc(F)c5c4)c3)CC2)C1 (single isomer, unassigned) [Example D-40, 2-((3-fluoro-1H-pyrrolo[2,3-b]pyridin-5-yl)oxy)-N-(((S)-3-((1s,4R)-4-hydroxycyclohexyl)-5-nitro-3,4-dihydro-2H-benzo[b][1,4]oxazin-7-yl)sulfonyl)-4-(2-((R or S)-2-(2-isopropylphenyl)pyrrolidin-1-yl)-7-azaspiro[3.5]nonan-7-yl)benzamide]",1

# Same assay, conditions: Toledo cells, MTS, read-out: Toledo IC50
row,Compound,IC50 [nM]
1,"N-(((S)-3-((1r,4S)-4-hydroxy-4- methylcyclohexyl)-5-nitro-3,4- dihydro-2H-benzo[b][1,4]oxazin-7- yl)sulfonyl)-4-(2-((R or S)- 2-(2-isopropylphenyl)pyrrolidin- 1-yl)-7-azaspiro[3.5]nonan-7- yl)-2-((6-(((R)-tetrahydrofuran-3- yl)oxy)-1H-pyrrolo[2,3-b]pyridin- 5-yl)oxy)benzamide [Example D-73]",1
